{"source": "patent US11246893B2", "about": "“Bacteriocin production, compositions and methods of use” (ISOThrive Inc., priority 2016, dated 2022)", "key": {"[1]": {"system": "Weissella viridescens NRRL B-1951", "experiment": "tube assay, W. viridescens growth with nisin A or Z (absorbance)", "format": "cell-based", "procedure": "100 g De-Man, Rogosa and Sharpe (MRS) media was prepared in a 500 mL Erlenmeyer to contain 5.5% solids in deionized water (18.2 MΩ, Hydro Service and Supplies. Gaithersburg, Md.). The media was autoclaved (121° C. 15 min), cooled, and inoculated with 1 mL (0.5 mL culture+0.5 mL glycerol, 40%; frozen at −78° C.) of Weissella viridescens NRRL B-1951 (test strain). The culture was incubated at 31° C. overnight (15 Hr).\nThe next day, stock solutions of either nisin A or Z were prepared in deionized water to contain 31.3 and 33.7 μg/g of each peptide.\n100 g MRS media was prepared to contain 5.5% solids. Two sets (one set each for nisin A and nisin Z) of eight Hach-type tubes (Kimble Chase 45066-16100) were prepared. Within each set, in order was added 5.00, 4.95, 4.90, 4.75, 4.50, 4.00, 3.50 and 3.00 g MRS media. The tubes were sealed and autoclaved.\nTo each tube was added, of the appropriate nisin stock, 0.00, 0.05, 0.10, 0.25, 0.50, 1.00, 1.50, and 2.00 g. Each tube was inoculated with 0.25 g of late-log W. viridescens NRRL B-1951 culture. The tubes were sealed and the absorbance at 600 nm was quickly measured (Hach DR900). The tubes were segregated by set and incubated at 31° C. overnight (15 Hr).\nEach tube was thoroughly mixed to suspend settled cells and the absorbance was measured again at 600 nm. The final absorbance values for each sample were corrected for their respective background (taken just after inoculation, scattered light from added cells). The corrected absorption values were a measure of W. viridescens growth.\nAs indicated above, the absorbance of the culture was measured again at 600 nm as a measure of W. viridescens growth, and the absorbance values for each sample were corrected for their respective background. These corrected absorption values plotted against nisin concentration and minimum inhibiting concentration approximated via regression.\nThe results were fit via four parameter logistic regression (4PLR), combined into a continuous function with a second assay set (0.65-9.99 μg/g), and are shown in FIG. 11A."}, "[2]": {"system": "Weissella viridescens NRRL B-1951", "experiment": "HPLC of tube supernatants: glucose consumption and organic acid production", "format": "cell-based", "conditions": "for acetic acid in fermentation media: MRS media originally contained 7% acetate", "procedure": "Each tube was sampled (1.5 mL conical polypropylene centrifuge tubes) and centrifuged at 10 kRPM for 10 minutes to remove and suspended cells. The resulting supernatants were filtered (0.2 μm nylon), diluted to 0.5% solids, and analyzed by high pressure liquid chromatography (HPLC, Agilent 1100, refractive index detector and BioRad Ainex HPX-87H column) for consumption of glucose and production of organic acids.\nNote that the MRS media originally contained 7% acetate; therefore 7% should be subtracted from the values for acetate in Table 8 to ascertain the amount of acetate generated during the assay."}, "[3]": {"experiment": "precipitation noted in proliferation assay (FIG. 9E)", "format": "physicochemical", "procedure": "As illustrated, nisins can have some uncommon amino acids such as lanthionine (Lan), methyllanthionine (MeLan), didehydroalanine (Dha), and didehydroaminobutyric acid (Dhb). FIG. 9E graphically illustrates inhibition of HCT-15 and DLD-1 colorectal cancer cell proliferation and IC50 values obtained for nisins A and Z. The plot is representative of four triplicate tests including two each for HCT-15 and DLD-1 cells. Note that Nisin A began to precipitate at concentrations >400 μg/mL."}, "[4]": {"conditions": "tube A2, nisin A 0.33 μg/g, 15 Hr"}, "[5]": {"conditions": "tube A3, nisin A 0.68 μg/g, 15 Hr"}, "[6]": {"conditions": "tube A4, nisin A 1.38 μg/g, 15 Hr"}, "[7]": {"conditions": "tube A5, nisin A 3.08 μg/g, 15 Hr"}, "[8]": {"conditions": "tube A6, nisin A 5.97 μg/g, 15 Hr"}, "[9]": {"conditions": "tube A7, nisin A 8.86 μg/g, 15 Hr"}, "[10]": {"conditions": "tube A8, nisin A 11.87 μg/g, 15 Hr"}}, "data": [{"sequence": "MSTKDFNLDLVSVSKKDSGASPRITSISLCTPGCKTGALMGCNMKTATCHCSIHVSK [nisin A]", "values": [{"measurement": "MIC, separate experiment", "setting": "[1]", "value": "about 2.5 μg/g"}, {"measurement": "minimal inhibitory concentration estimated from graphs", "setting": "[1]; 15 Hr, 31° C.", "value": "5 to 7", "unit": "µg/g"}, {"measurement": "91516 ABS 610f", "setting": "[1]; [4]", "value": 1.568}, {"measurement": "Corrected ABS 610rs", "setting": "[1]; [4]", "value": 1.106}, {"measurement": "91516 ABS 610f", "setting": "[1]; [5]", "value": 1.531}, {"measurement": "Corrected ABS 610rs", "setting": "[1]; [5]", "value": 1.063}, {"measurement": "91516 ABS 610f", "setting": "[1]; [6]", "value": 1.334}, {"measurement": "Corrected ABS 610rs", "setting": "[1]; [6]", "value": 0.868}, {"measurement": "91516 ABS 610f", "setting": "[1]; [7]", "value": 0.911}, {"measurement": "Corrected ABS 610rs", "setting": "[1]; [7]", "value": 0.473}, {"measurement": "91516 ABS 610f", "setting": "[1]; [8]", "value": 0.536}, {"measurement": "Corrected ABS 610rs", "setting": "[1]; [8]", "value": 0.116}, {"measurement": "91516 ABS 610f", "setting": "[1]; [9]", "value": 0.403}, {"measurement": "Corrected ABS 610rs", "setting": "[1]; [9]", "value": 0.001}, {"measurement": "91516 ABS 610f", "setting": "[1]; [10]", "value": 0.361}, {"measurement": "Corrected ABS 610rs", "setting": "[1]; [10]", "value": 0.001}, {"measurement": "Maltotriose in fermentation media", "setting": "[2]; tube A2, nisin A 0.33 μg/g", "value": 0.312, "unit": "%/brix"}, {"measurement": "ethanol in fermentation media", "setting": "[2]; tube A2, nisin A 0.33 μg/g", "value": 0.068, "unit": "%/brix"}, {"measurement": "formic acid in fermentation media", "setting": "[2]; tube A2, nisin A 0.33 μg/g", "value": 0.263, "unit": "%/brix"}, {"measurement": "fructose in fermentation media", "setting": "[2]; tube A2, nisin A 0.33 μg/g", "value": 0.000, "unit": "%/brix"}, {"measurement": "glucose in fermentation media", "setting": "[2]; tube A2, nisin A 0.33 μg/g", "value": 23.122, "unit": "%/brix"}, {"measurement": "glycerol in fermentation media", "setting": "[2]; tube A2, nisin A 0.33 μg/g", "value": 0.292, "unit": "%/brix"}, {"measurement": "lactic acid in fermentation media", "setting": "[2]; tube A2, nisin A 0.33 μg/g", "value": 6.884, "unit": "%/brix"}, {"measurement": "maltose in fermentation media", "setting": "[2]; tube A2, nisin A 0.33 μg/g", "value": 0.581, "unit": "%/brix"}, {"measurement": "acetic acid in fermentation media", "setting": "[2]; tube A2, nisin A 0.33 μg/g", "value": 7.967, "unit": "%/brix"}, {"measurement": "Maltotriose in fermentation media", "setting": "[2]; tube A4, nisin A 1.38 μg/g", "value": 0.298, "unit": "%/brix"}, {"measurement": "ethanol in fermentation media", "setting": "[2]; tube A4, nisin A 1.38 μg/g", "value": 0.062, "unit": "%/brix"}, {"measurement": "formic acid in fermentation media", "setting": "[2]; tube A4, nisin A 1.38 μg/g", "value": 0.282, "unit": "%/brix"}, {"measurement": "fructose in fermentation media", "setting": "[2]; tube A4, nisin A 1.38 μg/g", "value": 0.000, "unit": "%/brix"}, {"measurement": "glucose in fermentation media", "setting": "[2]; tube A4, nisin A 1.38 μg/g", "value": 24.138, "unit": "%/brix"}, {"measurement": "glycerol in fermentation media", "setting": "[2]; tube A4, nisin A 1.38 μg/g", "value": 0.319, "unit": "%/brix"}, {"measurement": "lactic acid in fermentation media", "setting": "[2]; tube A4, nisin A 1.38 μg/g", "value": 5.496, "unit": "%/brix"}, {"measurement": "maltose in fermentation media", "setting": "[2]; tube A4, nisin A 1.38 μg/g", "value": 0.815, "unit": "%/brix"}, {"measurement": "acetic acid in fermentation media", "setting": "[2]; tube A4, nisin A 1.38 μg/g", "value": 8.219, "unit": "%/brix"}, {"measurement": "Maltotriose in fermentation media", "setting": "[2]; tube A5, nisin A 3.08 μg/g", "value": 0.276, "unit": "%/brix"}, {"measurement": "ethanol in fermentation media", "setting": "[2]; tube A5, nisin A 3.08 μg/g", "value": 0.094, "unit": "%/brix"}, {"measurement": "formic acid in fermentation media", "setting": "[2]; tube A5, nisin A 3.08 μg/g", "value": 0.407, "unit": "%/brix"}, {"measurement": "fructose in fermentation media", "setting": "[2]; tube A5, nisin A 3.08 μg/g", "value": 0.000, "unit": "%/brix"}, {"measurement": "glucose in fermentation media", "setting": "[2]; tube A5, nisin A 3.08 μg/g", "value": 24.698, "unit": "%/brix"}, {"measurement": "glycerol in fermentation media", "setting": "[2]; tube A5, nisin A 3.08 μg/g", "value": 0.350, "unit": "%/brix"}, {"measurement": "lactic acid in fermentation media", "setting": "[2]; tube A5, nisin A 3.08 μg/g", "value": 4.672, "unit": "%/brix"}, {"measurement": "maltose in fermentation media", "setting": "[2]; tube A5, nisin A 3.08 μg/g", "value": 0.598, "unit": "%/brix"}, {"measurement": "acetic acid in fermentation media", "setting": "[2]; tube A5, nisin A 3.08 μg/g", "value": 8.296, "unit": "%/brix"}, {"measurement": "Maltotriose in fermentation media", "setting": "[2]; tube A6, nisin A 5.97 μg/g", "value": 0.288, "unit": "%/brix"}, {"measurement": "ethanol in fermentation media", "setting": "[2]; tube A6, nisin A 5.97 μg/g", "value": 0.057, "unit": "%/brix"}, {"measurement": "formic acid in fermentation media", "setting": "[2]; tube A6, nisin A 5.97 μg/g", "value": 0.280, "unit": "%/brix"}, {"measurement": "fructose in fermentation media", "setting": "[2]; tube A6, nisin A 5.97 μg/g", "value": 0.000, "unit": "%/brix"}, {"measurement": "glucose in fermentation media", "setting": "[2]; tube A6, nisin A 5.97 μg/g", "value": 25.304, "unit": "%/brix"}, {"measurement": "glycerol in fermentation media", "setting": "[2]; tube A6, nisin A 5.97 μg/g", "value": 0.328, "unit": "%/brix"}, {"measurement": "lactic acid in fermentation media", "setting": "[2]; tube A6, nisin A 5.97 μg/g", "value": 2.707, "unit": "%/brix"}, {"measurement": "maltose in fermentation media", "setting": "[2]; tube A6, nisin A 5.97 μg/g", "value": 0.941, "unit": "%/brix"}, {"measurement": "acetic acid in fermentation media", "setting": "[2]; tube A6, nisin A 5.97 μg/g", "value": 8.143, "unit": "%/brix"}, {"measurement": "Maltotriose in fermentation media", "setting": "[2]; tube A7, nisin A 8.86 μg/g", "value": 0.419, "unit": "%/brix"}, {"measurement": "ethanol in fermentation media", "setting": "[2]; tube A7, nisin A 8.86 μg/g", "value": 0.055, "unit": "%/brix"}, {"measurement": "formic acid in fermentation media", "setting": "[2]; tube A7, nisin A 8.86 μg/g", "value": 0.234, "unit": "%/brix"}, {"measurement": "fructose in fermentation media", "setting": "[2]; tube A7, nisin A 8.86 μg/g", "value": 0.000, "unit": "%/brix"}, {"measurement": "glucose in fermentation media", "setting": "[2]; tube A7, nisin A 8.86 μg/g", "value": 25.444, "unit": "%/brix"}, {"measurement": "glycerol in fermentation media", "setting": "[2]; tube A7, nisin A 8.86 μg/g", "value": 0.299, "unit": "%/brix"}, {"measurement": "lactic acid in fermentation media", "setting": "[2]; tube A7, nisin A 8.86 μg/g", "value": 1.521, "unit": "%/brix"}, {"measurement": "maltose in fermentation media", "setting": "[2]; tube A7, nisin A 8.86 μg/g", "value": 0.775, "unit": "%/brix"}, {"measurement": "acetic acid in fermentation media", "setting": "[2]; tube A7, nisin A 8.86 μg/g", "value": 7.899, "unit": "%/brix"}, {"measurement": "Maltotriose in fermentation media", "setting": "[2]; tube A8, nisin A 11.87 μg/g", "value": 0.305, "unit": "%/brix"}, {"measurement": "ethanol in fermentation media", "setting": "[2]; tube A8, nisin A 11.87 μg/g", "value": 0.071, "unit": "%/brix"}, {"measurement": "formic acid in fermentation media", "setting": "[2]; tube A8, nisin A 11.87 μg/g", "value": 0.233, "unit": "%/brix"}, {"measurement": "fructose in fermentation media", "setting": "[2]; tube A8, nisin A 11.87 μg/g", "value": 0.000, "unit": "%/brix"}, {"measurement": "glucose in fermentation media", "setting": "[2]; tube A8, nisin A 11.87 μg/g", "value": 25.537, "unit": "%/brix"}, {"measurement": "glycerol in fermentation media", "setting": "[2]; tube A8, nisin A 11.87 μg/g", "value": 0.301, "unit": "%/brix"}, {"measurement": "lactic acid in fermentation media", "setting": "[2]; tube A8, nisin A 11.87 μg/g", "value": 1.579, "unit": "%/brix"}, {"measurement": "maltose in fermentation media", "setting": "[2]; tube A8, nisin A 11.87 μg/g", "value": 0.739, "unit": "%/brix"}, {"measurement": "acetic acid in fermentation media", "setting": "[2]; tube A8, nisin A 11.87 μg/g", "value": 8.091, "unit": "%/brix"}, {"measurement": "concentration at which precipitation began", "setting": "[3]", "value": "> 400", "unit": "µg/mL"}]}]}
